Results as given in patent US20240382466A1, “PHARMACEUTICAL COMPOSITION FOR PREVENTING OR TREATING ALZHEIMER’S DISEASE” (priority 2021, published 2024).

Key:
[1] = tested on: mice in a model of Alzheimer's disease; experiment: Eight-arm maze behavioral experiment in D-galactose/AlCl3 mouse model of Alzheimer's disease; type: in vivo, Kunming mice; conditions: 8 weeks, x ± s, n = 10
Description: A food providing device is arranged at an end of each arm of an eight-arm maze. The spatial memory ability of an experimental animal may be reflected according to the strategy of analyzing feeding of an animal, namely the parameters of the times, time, correct times, wrong times, routes and the like of entering each arm. In contrast, the eight-arm maze is simple, convenient and feasible to operate, can distinguish short-term working memory from long-term reference memory, and is widely used for evaluating a learning and memory cognitive experiment. The main analysis indexes of the eight-arm maze are name, grouping, working memory error latency, reference memory error latency, total correct times, total arm entering times, working memory error times, reference memory error times, correct latency, correct rate, working memory error rate, reference memory error rate, correct times before first error, test time, a track graph and the like. […] 100 SPF-grade Kunming mice, each half male and female, weighed 20-22 g, were provided by the Jinan Pengyue Experimental Animal Breeding Co., Ltd with the animal certificate number: SCXK(Lu)20190003. The mice were bred to freely drink and eat in an SPF-grade animal breeding room with strictly controlled environmental conditions: the temperature of 20-26° C., the humidity of 40-70%, the light and dark cycle of 12 h:12 h, and a growing and breeding feed. All mice were first trained in an eight-arm maze which was a common model for evaluating the learning and memory ability of an animal. The animals were adaptively fed for 1 week, weighed, and fasted for 24 hours. Then after each day of training, the mice were restrictively given a normal diet to maintain the body weight of the mice between 80% and 85% of that of mice fed normally. On the second day, food particles (4-5 particles each arm with the diameter of about 3-4 mm) were sprayed in each arm and a center area of the maze. Then 4 animals were placed in the center of the maze simultaneously (doors to each arm were opened). The animals were freely fed and explored for 10 min. On the third day, the training of the second day was repeated. This process allowed the animals to become familiar with the maze environment without very strong stress. On the fourth day, the animals were trained individually: one food particle was placed in each arm near an outer food box and the animals ate freely. The animals were removed after the food particles were consumed or 10 min later. On the fifth day, the food was placed in the food box and the previous day of training was repeated 2 times a day. After the sixth day, 4 arms were randomly selected and one food particle was placed in each arm; each arm door was closed and the animals were placed in the center of the maze; and after 30s, the arm door was opened, the animals moved freely in the maze and took the food particle until the animals ate the food particles of all 4 arms. If the food particles were not eaten up after 10 min, the experiment was terminated. The animals were trained twice a day with the interval of 1 h or more. […] The mice meeting the learning standard were screened, 10 of them were randomly selected as a normal group, 10 as a model group, and the others as experimental groups. Except that the mice in the normal group were intraperitoneally injected with the same amount of normal saline and intragastrically administrated with the same amount of double distilled water, the mice of the other groups were all intraperitoneally injected with D-galactose (500 mg/kg/D) (prepared with normal saline) and intragastrically administrated AlCl3 (20 mg/kg/D) (prepared with double distilled water). The mice in the experimental groups were intragastrically administrated once a day according to the grouping and administration dose and the mice in the normal group and the model group were intragastrically administrated with the same amount of purified water for 8 weeks successively. […]

[2] = tested on: mice in a model of Alzheimer's disease; experiment: Contents of tryptophan, L-kynurenine and 5-hydroxytryptamine in serum by high performance liquid chromatography; type: in vivo, Kunming mice; conditions: 8 weeks, x ± s, n = 10
Procedure: 100 SPF-grade Kunming mice, each half male and female, weighed 20-22 g, were provided by the Jinan Pengyue Experimental Animal Breeding Co., Ltd with the animal certificate number: SCXK(Lu)20190003. The mice were bred to freely drink and eat in an SPF-grade animal breeding room with strictly controlled environmental conditions: the temperature of 20-26° C., the humidity of 40-70%, the light and dark cycle of 12 h:12 h, and a growing and breeding feed. The mice meeting the learning standard were screened, 10 of them were randomly selected as a normal group, 10 as a model group, and the others as experimental groups. Except that the mice in the normal group were intraperitoneally injected with the same amount of normal saline and intragastrically administrated with the same amount of double distilled water, the mice of the other groups were all intraperitoneally injected with D-galactose (500 mg/kg/D) (prepared with normal saline) and intragastrically administrated AlCl3 (20 mg/kg/D) (prepared with double distilled water). The mice in the experimental groups were intragastrically administrated once a day according to the grouping and administration dose and the mice in the normal group and the model group were intragastrically administrated with the same amount of purified water for 8 weeks successively. The mice in the experimental groups were divided into 8 groups of low- and high-dose anhydroicaritin groups, low- and high-dose compound I groups, and composition A, B, C, and D groups with 10 mice in each group. […] After the last administration, […] of blood was taken from each eyeball of each group of the mice subjected to the eight-arm maze test and stood overnight at 4° C. in a test tube, and a supernatant was taken the following day for later use. The contents of tryptophan, L-kynurenine, and 5-hydroxytryptamine in blood serum were detected by a high performance liquid chromatography.

GSK-3 = conditions: cited from earlier work
microglia = conditions: Alzheimer's disease inflammation model; cited from earlier work
[3] = high-dose anhydroicaritin group, 21.2 mg/(kg·d) intragastric once a day
[4] = low-dose anhydroicaritin group, 3.2 mg/(kg·d) intragastric once a day
[5] = high-dose anhydroicaritin group, 21.2 mg/(kg·d) intragastric
[6] = low-dose anhydroicaritin group, 3.2 mg/(kg·d) intragastric
[7] = high-dose compound I group, 32 mg/(kg·d) intragastric once a day
[8] = low-dose compound I group, 0.6 mg/(kg·d) intragastric once a day
[9] = high-dose compound I group, 32 mg/(kg·d) intragastric
[10] = low-dose compound I group, 0.6 mg/(kg·d) intragastric

Structure (SMILES): COc1ccc(-c2oc3c(CC=C(C)C)c(O)cc(O)c3c(=O)c2O)cc1 [anhydroicaritin]
- Average exploration time (s) [1, 3]: 189.81 ± 1.19^+ s
- Reference memory error frequency [1, 3]: 0.20 ± 0.04^+
- Working memory error frequency [1, 3]: 0.44 ± 0.06^+
- Average exploration time (s) [1, 4]: 190.17 ± 1.18^+ s
- Reference memory error frequency [1, 4]: 0.21 ± 0.03^+
- Working memory error frequency [1, 4]: 0.45 ± 0.02^+
- 5-hydroxytryptamine (μg/ml) [2, 5]: 1.30 ± 0.07^+ μg/ml
- L-kynurenine (μg/ml) [2, 5]: 0.33 ± 0.02^+ μg/ml
- Tryptophan (μg/ml) [2, 5]: 17.90 ± 0.30^+ μg/ml
- 5-hydroxytryptamine (μg/ml) [2, 6]: 1.29 ± 0.05^+ μg/ml
- L-kynurenine (μg/ml) [2, 6]: 0.33 ± 0.01^+ μg/ml
- Tryptophan (μg/ml) [2, 6]: 17.79 ± 0.65^+ μg/ml

Structure (SMILES): N=C(N)NCCNc1nonc1/C(=N/O)Nc1ccc(F)c(Br)c1 [compound I]
- Average exploration time (s) [1, 7]: 189.95 ± 1.04^+ s
- Reference memory error frequency [1, 7]: 0.21 ± 0.04^+
- Working memory error frequency [1, 7]: 0.44 ± 0.05^+
- Average exploration time (s) [1, 8]: 190.20 ± 1.09^+ s
- Reference memory error frequency [1, 8]: 0.23 ± 0.05^+
- Working memory error frequency [1, 8]: 0.52 ± 0.03^++
- 5-hydroxytryptamine (μg/ml) [2, 9]: 1.28 ± 0.05^+ μg/ml
- L-kynurenine (μg/ml) [2, 9]: 0.33 ± 0.01^+ μg/ml
- Tryptophan (μg/ml) [2, 9]: 18.08 ± 0.02^+ μg/ml
- 5-hydroxytryptamine (μg/ml) [2, 10]: 1.29 ± 0.05^+ μg/ml
- L-kynurenine (μg/ml) [2, 10]: 0.35 ± 0.03^+ μg/ml
- Tryptophan (μg/ml) [2, 10]: 17.92 ± 0.95^+ μg/ml

Structure (SMILES): COc1ccc(-c2oc3c(CC=C(C)C)c(O)cc(O)c3c(=O)c2O)cc1 [icaritin]
- GSK-3 activity (GSK-3): inhibiting GSK-3 activity
- activation of microglia induced by LPS (microglia): inhibit excessive activation of microglia induced by LPS
- learning and memory ability of mice (microglia): improve the learning and memory ability of mice
